Measured values reported in the supplement of paper PMC11208160.

Assay: recombinant UMI read abundance after kanamycin selection (control-corrected) (log10(CPM+1)); higher = more efficient recombination; extreme values may be limits of the assay; sequences stand for … in AGTGCAGAGAAAATCGGCCAGTTTTCTCTGCCTGCAGTCCGCATGCCGTGGGACCCCTTGGGTTCTAACCTGTTGCCTAGATTTATGCAGCGGACTGCCTTTCTCCCAAAGTGATAAACCGG…AGGTTGGTTTCACT; site = the 11-nt donor
In short: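 For the IS621 bridge recombinase, a pooled Escherichia coli screen tested donor and donor-binding-loop pairs. Cells received the pair library together with a target plasmid encoding a fixed target and T7-inducible recombinase, then went onto IPTG (0.07 mM) plus kanamycin or unselected plates in duplicate. After PCR across the donor–target junction and sequencing, recombinant UMI counts were normalized to CPM, averaged, and scaled by control-derived factors. Each value is given as log10(CPM+1).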
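Note: IS621 bridge recombinase in Escherichia coli cells against a fixed T5 target plasmid.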

Sequence: CGTATAACATGGACCGGTTTTCCCGGTAATCCGTATTTGAT (site CGTATAACTAT)
- recombinant UMI read abundance (log10): 0.94

Sequence: CGTCATGCATGGACCGGTTTTCCCGGTAATCCGTATTTGAC (site CGTCATGCTGT)
- recombinant UMI read abundance (log10): 1.2

Sequence: CGTCTTTCATGGACCGGTTTTCCCGGTAATCCGTATTTGCA (site CGTCTTTCTTG)
- recombinant UMI read abundance (log10): 0

Sequence: CGTGAAACATGGACCGGTTTTCCCGGTAATCCGTATTTGTT (site CGTGAAACTAA)
- recombinant UMI read abundance (log10): 1.61

Sequence: CGTGAAACATGGACCGGTTTTCCCGGTAATCCGTATTTGTT (site CGTGCAACTAA)
- recombinant UMI read abundance (log10): 0

Sequence: CGTGAAACATGGACCGGTTTTCCCGGTAATCCGTATTTGTT (site CGTGGAACTAA)
- recombinant UMI read abundance (log10): 0

Sequence: CGTGAAACATGGACCGGTTTTCCCGGTAATCCGTATTTGTT (site CGTGTAACTAA)
- recombinant UMI read abundance (log10): 0.0209

Sequence: CGTGAGGCATGGACCGGTTTTCCCGGTAATCCGTATTTGCC (site CGTGAGGCTGG)
- recombinant UMI read abundance (log10): 0.525

Sequence: CGTGCCCCATGGACCGGTTTTCCCGGTAATCCGTATTTGGC (site CGTGCCCCTGC)
- recombinant UMI read abundance (log10): 0

Sequence: CGTGGAACATGGACCGGTTTTCCCGGTAATCCGTATTTGCG (site CGTGGAACTCG)
- recombinant UMI read abundance (log10): 2.05

Sequence: CGTGGAGCATGGACCGGTTTTCCCGGTAATCCGTATTTGTT (site CGTGGAACTAA)
- recombinant UMI read abundance (log10): 1.66

Sequence: CGTGGAGCATGGACCGGTTTTCCCGGTAATCCGTATTTGTT (site CGTGGACCTAA)
- recombinant UMI read abundance (log10): 0.00893

Sequence: CGTGGAGCATGGACCGGTTTTCCCGGTAATCCGTATTTGTT (site CGTGGAGCTAA)
- recombinant UMI read abundance (log10): 2.02

Sequence: CGTGGAGCATGGACCGGTTTTCCCGGTAATCCGTATTTGTT (site CGTGGATCTAA)
- recombinant UMI read abundance (log10): 1.23

Sequence: CGTGGATCATGGACCGGTTTTCCCGGTAATCCGTATTTGTT (site CGTGGAACTAA)
- recombinant UMI read abundance (log10): 0.0027

Sequence: CGTGGATCATGGACCGGTTTTCCCGGTAATCCGTATTTGTT (site CGTGGACCTAA)
- recombinant UMI read abundance (log10): 0.0255

Sequence: CGTGGATCATGGACCGGTTTTCCCGGTAATCCGTATTTGTT (site CGTGGAGCTAA)
- recombinant UMI read abundance (log10): 0

Sequence: CGTGGATCATGGACCGGTTTTCCCGGTAATCCGTATTTGTT (site CGTGGATCTAA)
- recombinant UMI read abundance (log10): 2.34

Sequence: CGTGGTACATGGACCGGTTTTCCCGGTAATCCGTATTTGTT (site CGTGGAACTAA)
- recombinant UMI read abundance (log10): 0.177

Sequence: CGTGGTACATGGACCGGTTTTCCCGGTAATCCGTATTTGTT (site CGTGGCACTAA)
- recombinant UMI read abundance (log10): 0.0912

Sequence: CGTGGTACATGGACCGGTTTTCCCGGTAATCCGTATTTGTT (site CGTGGGACTAA)
- recombinant UMI read abundance (log10): 0

Sequence: CGTGGTACATGGACCGGTTTTCCCGGTAATCCGTATTTGTT (site CGTGGTACTAA)
- recombinant UMI read abundance (log10): 1.25

Sequence: CGTGTGGCATGGACCGGTTTTCCCGGTAATCCGTATTTGCT (site CGTATGGCTAG)
- recombinant UMI read abundance (log10): 1.01

Sequence: CGTGTGGCATGGACCGGTTTTCCCGGTAATCCGTATTTGCT (site CGTCTGGCTAG)
- recombinant UMI read abundance (log10): 0.00526

Sequence: CGTGTGGCATGGACCGGTTTTCCCGGTAATCCGTATTTGCT (site CGTGTGGCTAG)
- recombinant UMI read abundance (log10): 3.26

Sequence: CGTGTGGCATGGACCGGTTTTCCCGGTAATCCGTATTTGCT (site CGTTTGGCTAG)
- recombinant UMI read abundance (log10): 0

Sequence: CGTGTTGCATGGACCGGTTTTCCCGGTAATCCGTATTTGTC (site CGTGTTGCTGA)
- recombinant UMI read abundance (log10): 2.08

Sequence: CGTTAGGCATGGACCGGTTTTCCCGGTAATCCGTATTTGAG (site CGTTAGACTCT)
- recombinant UMI read abundance (log10): 0.855

Sequence: CGTTAGGCATGGACCGGTTTTCCCGGTAATCCGTATTTGAG (site CGTTAGCCTCT)
- recombinant UMI read abundance (log10): 0.00789

Sequence: CGTTAGGCATGGACCGGTTTTCCCGGTAATCCGTATTTGAG (site CGTTAGGCTCT)
- recombinant UMI read abundance (log10): 1.23

Sequence: CGTTAGGCATGGACCGGTTTTCCCGGTAATCCGTATTTGAG (site CGTTAGTCTCT)
- recombinant UMI read abundance (log10): 0.173

Sequence: CGTTATCCATGGACCGGTTTTCCCGGTAATCCGTATTTGTT (site CGGAATCCTAA)
- recombinant UMI read abundance (log10): 0

Sequence: CGTTATCCATGGACCGGTTTTCCCGGTAATCCGTATTTGTT (site CGTTATCCTAA)
- recombinant UMI read abundance (log10): 0.375

Sequence: CGTTCATCATGGACCGGTTTTCCCGGTAATCCGTATTTGCT (site CGATCATCTAG)
- recombinant UMI read abundance (log10): 0

Sequence: CGTTCATCATGGACCGGTTTTCCCGGTAATCCGTATTTGCT (site CGCTCATCTAG)
- recombinant UMI read abundance (log10): 1.41

Sequence: CGTTCATCATGGACCGGTTTTCCCGGTAATCCGTATTTGCT (site CGGTCATCTAG)
- recombinant UMI read abundance (log10): 0

Sequence: CGTTCATCATGGACCGGTTTTCCCGGTAATCCGTATTTGCT (site CGTTCATCTAG)
- recombinant UMI read abundance (log10): 1.35

Sequence: CGTTCCCCATGGACCGGTTTTCCCGGTAATCCGTATTTGTA (site AGTTCCCCTTA)
- recombinant UMI read abundance (log10): 0.00297

Sequence: CGTTCCCCATGGACCGGTTTTCCCGGTAATCCGTATTTGTA (site CGTTCCCCTTA)
- recombinant UMI read abundance (log10): 0.531

Sequence: CGTTCCCCATGGACCGGTTTTCCCGGTAATCCGTATTTGTA (site GGTTCCCCTTA)
- recombinant UMI read abundance (log10): 0.00349

Sequence: CGTTCCCCATGGACCGGTTTTCCCGGTAATCCGTATTTGTA (site TGTTCCCCTTA)
- recombinant UMI read abundance (log10): 0.00473

Sequence: CGTTCGGCATGGACCGGTTTTCCCGGTAATCCGTATTTGCT (site CGTTAGGCTAG)
- recombinant UMI read abundance (log10): 0.00568

Sequence: CGTTCGGCATGGACCGGTTTTCCCGGTAATCCGTATTTGCT (site CGTTCGGCTAG)
- recombinant UMI read abundance (log10): 1.63

Sequence: CGTTCGGCATGGACCGGTTTTCCCGGTAATCCGTATTTGCT (site CGTTGGGCTAG)
- recombinant UMI read abundance (log10): 0.00466

Sequence: CGTTCGGCATGGACCGGTTTTCCCGGTAATCCGTATTTGCT (site CGTTTGGCTAG)
- recombinant UMI read abundance (log10): 0

Sequence: CGTTGCTCATGGACCGGTTTTCCCGGTAATCCGTATTTGAT (site CGTTGCTCTAT)
- recombinant UMI read abundance (log10): 1.8

Sequence: CGTTGTACATGGACCGGTTTTCCCGGTAATCCGTATTTGCT (site CGTTGTACTAG)
- recombinant UMI read abundance (log10): 1.39

Sequence: CGTTTCGCATGGACCGGTTTTCCCGGTAATCCGTATTTGCT (site CGTTTAGCTAG)
- recombinant UMI read abundance (log10): 0

Sequence: CGTTTCGCATGGACCGGTTTTCCCGGTAATCCGTATTTGCT (site CGTTTCGCTAG)
- recombinant UMI read abundance (log10): 0.892

Sequence: CGTTTCGCATGGACCGGTTTTCCCGGTAATCCGTATTTGCT (site CGTTTGGCTAG)
- recombinant UMI read abundance (log10): 0

Sequence: CGTTTCGCATGGACCGGTTTTCCCGGTAATCCGTATTTGCT (site CGTTTTGCTAG)
- recombinant UMI read abundance (log10): 0

Sequence: CGTTTGACATGGACCGGTTTTCCCGGTAATCCGTATTTGAG (site CGTTAGACTCT)
- recombinant UMI read abundance (log10): 0.00643

Sequence: CGTTTGACATGGACCGGTTTTCCCGGTAATCCGTATTTGAG (site CGTTCGACTCT)
- recombinant UMI read abundance (log10): 0

Sequence: CGTTTGACATGGACCGGTTTTCCCGGTAATCCGTATTTGAG (site CGTTGGACTCT)
- recombinant UMI read abundance (log10): 0.0522

Sequence: CGTTTGACATGGACCGGTTTTCCCGGTAATCCGTATTTGAG (site CGTTTGACTCT)
- recombinant UMI read abundance (log10): 1.03

Sequence: CGTTTGGCATGGACCGGTTTTCCCGGTAATCCGTATTTGCA (site CGTTTGGCTAG)
- recombinant UMI read abundance (log10): 0

Sequence: CGTTTGGCATGGACCGGTTTTCCCGGTAATCCGTATTTGCA (site CGTTTGGCTCG)
- recombinant UMI read abundance (log10): 0.024

Sequence: CGTTTGGCATGGACCGGTTTTCCCGGTAATCCGTATTTGCA (site CGTTTGGCTGG)
- recombinant UMI read abundance (log10): 0

Sequence: CGTTTGGCATGGACCGGTTTTCCCGGTAATCCGTATTTGCA (site CGTTTGGCTTG)
- recombinant UMI read abundance (log10): 0.562

Sequence: CTAACAGCATGGACCGGTTTTCCCGGTAATCCGTATTTGTA (site CTAACAGCTTA)
- recombinant UMI read abundance (log10): 2.48

Sequence: CTAACATCATGGACCGGTTTTCCCGGTAATCCGTATTTGCT (site CTAACATCTAG)
- recombinant UMI read abundance (log10): 2.12

Sequence: CTAACTGCATGGACCGGTTTTCCCGGTAATCCGTATTTGTC (site CTAACTGCTGA)
- recombinant UMI read abundance (log10): 2.12

Sequence: CTAAGACCATGGACCGGTTTTCCCGGTAATCCGTATTTGCG (site CTAAGACCTCG)
- recombinant UMI read abundance (log10): 0.0114

Sequence: CTACAACCATGGACCGGTTTTCCCGGTAATCCGTATTTGAT (site CTACAACCTAT)
- recombinant UMI read abundance (log10): 0

Sequence: CTACCATCATGGACCGGTTTTCCCGGTAATCCGTATTTGAC (site CTACCATCTGT)
- recombinant UMI read abundance (log10): 2.39

Sequence: CTACCATCATGGACCGGTTTTCCCGGTAATCCGTATTTGAC (site CTAGTATCTGT)
- recombinant UMI read abundance (log10): 0

Sequence: CTACCGCCATGGACCGGTTTTCCCGGTAATCCGTATTTGAC (site CTACCGCCTGT)
- recombinant UMI read abundance (log10): 0.322

Sequence: CTACCGCCATGGACCGGTTTTCCCGGTAATCCGTATTTGCG (site CTACCGCCTCG)
- recombinant UMI read abundance (log10): 0.268
